This is an account of results in patent US8642642B2, “Heterocyclic arylsulphones suitable for treating disorders that respond to modulation of the serotonin 5HT6 receptor” (Abbott Laboratories, priority 2006, dated 2014).

Assay [1] addresses T1, human dopamine D3 receptors (Homo sapiens, UniProt P35462).
T1 construct: expressed in transfected cells
As to the kind of experiment: Dopamine D3 receptor binding ([125I]-iodosulpride). As to conditions: for Ki: membranes from HEK-293 cells, 0.1 nM [125I]-iodosulpride; for Ki(D2)/Ki(D3): ratio of receptor binding constants, D2L versus D3. Here is the method:
(§1) The substance to be tested was either dissolved in methanol/Chremophor® (BASF-AG) or in dimethyl sulfoxide and then diluted with water to the desired concentration.
Each assay mixture was run in triplicate.
The incubation buffer contained 50 mM tris, 120 mM NaCl, 5 mM KCl, 2 mM CaCl2, 2 mM MgCl2 and 0.1% bovine serum albumin, 10 μM quinolone and 0.1% ascorbic acid (prepared fresh daily). The buffer was adjusted to pH 7.4 with HCl.
After having been incubated at 25° C. for 60 minutes, the assay mixtures were filtered through a Whatman GF/B glass fiber filter under vacuum using a cell collecting device. The filters were transferred to scintillation viols using a filter transfer system. After 4 ml of Ultima Gold® (Packard) have been added, the samples were shaken for one hour and the radioactivity was then counted in a Beta-Counter (Packard, Tricarb 2000 or 2200CA). The cpm values were converted into dpm using a standard quench series and the program belonging to the instrument.
The inhibition curves were analyzed by means of iterative nonlinear regression analysis using the Statistical Analysis System (SAS) which is similar to the “LIGAND” program described by Munson and Rodbard.

Another assay has as its target T2, human 5-HT6 receptor (Homo sapiens, UniProt P50406).
T2 construct: expressed in transfected cells
The assay is described as follows: Human 5-HT6 receptor binding assay (3H-LSD displacement). Particulars: membranes from HEK-293 cells, 2 nM 3H-LSD. Here is the method: as §1
The compounds were dissolved in a concentration of 10^−2 M or 10^−3 M in DMSO. Further dilutions were performed in incubation buffer.
The procedure for the binding assay was based on the method of Monsma et al. (1993) Mol Pharmacol 43: 320-327. The binding reaction was carried out in a total volume of 0.250 ml for 60 min at 37° C. Membranes from HEK-293 cells stably expressing the human 5-HT6 receptor were incubated with 2 nM ^3H-LSD in the presence or absence of various concentrations of test compound for 60 min at 37° C. Non-specific binding was defined with 100 μM Serotonin (5-HT). Assays were performed in duplicate. Bound and free radioligand was separated by filtration and bound radioactivity determined by liquid scintillation counting.
The specific ligand binding to the receptors was defined as the difference between the total binding and the nonspecific binding determined in the presence of an excess of unlabelled 5-HT. The results are expressed as a percent of control specific binding obtained in the presence of compound. The IC50 values (concentration causing a half-maximal inhibition of control specific binding) and Hill coefficients (nH) were determined by non-linear regression analysis of the competition curves using Hill equation curve fitting.
The inhibition constants (Ki) were calculated from the Cheng Prusoff equation (Ki=IC50/(1+(L/KD)), where L=concentration of radioligand in the assay, and KD=affinity of the radioligand for the receptor).

Where a name gives a salt, the structure may show the parent alone.

T1 sequence (P35462 whole entry): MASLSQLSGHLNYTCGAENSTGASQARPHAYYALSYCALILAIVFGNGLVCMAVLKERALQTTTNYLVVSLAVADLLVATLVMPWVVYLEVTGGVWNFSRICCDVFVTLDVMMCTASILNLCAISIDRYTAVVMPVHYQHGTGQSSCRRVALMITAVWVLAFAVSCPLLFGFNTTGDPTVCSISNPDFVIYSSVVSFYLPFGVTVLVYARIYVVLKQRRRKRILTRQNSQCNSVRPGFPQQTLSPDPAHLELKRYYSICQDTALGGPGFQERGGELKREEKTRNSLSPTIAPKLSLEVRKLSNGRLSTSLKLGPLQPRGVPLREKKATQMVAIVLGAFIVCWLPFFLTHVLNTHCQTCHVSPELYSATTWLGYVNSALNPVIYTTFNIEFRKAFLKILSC
T2 sequence (P50406 whole entry): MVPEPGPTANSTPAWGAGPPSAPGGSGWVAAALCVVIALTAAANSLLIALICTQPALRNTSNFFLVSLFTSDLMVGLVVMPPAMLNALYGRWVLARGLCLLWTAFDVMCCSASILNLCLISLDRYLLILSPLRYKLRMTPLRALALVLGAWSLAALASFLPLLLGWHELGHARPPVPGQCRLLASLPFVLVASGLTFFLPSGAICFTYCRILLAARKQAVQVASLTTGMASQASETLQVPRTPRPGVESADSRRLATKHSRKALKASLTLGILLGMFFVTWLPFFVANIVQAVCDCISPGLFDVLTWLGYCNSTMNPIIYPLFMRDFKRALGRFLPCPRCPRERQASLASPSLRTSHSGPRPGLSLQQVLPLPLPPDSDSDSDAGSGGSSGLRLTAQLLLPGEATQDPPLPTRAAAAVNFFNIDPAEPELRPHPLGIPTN

By Ki is commonly meant the dissociation constant of the complex between target and ligand, obtained from inhibition or displacement. Read a low Ki as a stronger hold on the target. In the case of “3-Trifluoromethyl-N-[4-((S)-1-propyl-pyrrolidin-3-yl)-phenyl]-benzenesulfonamide [Example 4]”, in assay [1], the Ki lay within 10 to 50 nM; the “Ki(D2)/Ki(D3)” value was “+ (between 10 and 50)”. Besides, the Ki at human 5-HT6 receptor was in the range of 1 to 10 nM.
With `CCCN1C[C@@H](CF)[C@H](c2ccc(NS(=O)(=O)c3cccc(C(F)(F)F)c3)cc2)C1` (relative stereo) [Example 95, N-[4-(trans-4-Fluoromethyl-1-propyl-pyrrolidin-3-yl)-phenyl]-3-trifluoromethyl-benzenesulfonamide], in assay [1], the Ki was 10 to 50 nM; the “Ki(D2)/Ki(D3)” value is “+ (between 10 and 50)”. The Ki on human 5-HT6 receptor lay within 1 to 10 nM.
In the case of `CCCN1CC[C@@H](c2ccc(NS(=O)(=O)c3cc(F)c(Br)cc3F)cc2)C1` [Example 3, 4-Bromo-3,6-difluoro-N-[4-((S)-1-propyl-pyrrolidin-3-yl)-phenyl]-benzenesulfonamide], in assay [1], the Ki was 1 to 10 nM; the “Ki(D2)/Ki(D3)” value was “+++ (between 100 and 150)”. Also, the Ki at human 5-HT6 receptor is 10 to 50 nM.
For `CCCN1CC[C@@H](c2ccc(NS(=O)(=O)c3ccc(Br)s3)cc2)C1.Cl` [Example 59, 5-Bromo-thiophene-2-sulfonic acid [4-((S)-1-propyl-pyrrolidin-3-yl)-phenyl]-amide hydrochloride], in assay [1], the Ki was in the range of 1 to 10 nM; the “Ki(D2)/Ki(D3)” value is “+++ (between 100 and 150)”. This molecule registered a Ki at human 5-HT6 receptor of 1 to 10 nM.
Turning to `CCCc1ccc(S(=O)(=O)Nc2ccc([C@@H]3CCN(CCC)C3)cc2)s1` [Example 60, 5-Propyl-thiophene-2-sulfonic acid [4-((S)-1-propyl-pyrrolidin-3-yl)-phenyl]-amide], the Ki in assay [1] is under 1 nM; at human 5-HT6 receptor, 10 to 50 nM. The “Ki(D2)/Ki(D3)” value in assay [1] is “+ (between 10 and 50)”.
For `CCCN1CC[C@@H](c2ccc(NS(=O)(=O)c3ccc(OC(F)(F)F)c(Br)c3)cc2)C1.Cl` [Example 61, 3-Bromo-N-[4-((S)-1-propyl-pyrrolidin-3-yl)-phenyl]-4-trifluoromethoxy-benzenesulfonamide hydrochloride], in assay [1], the Ki lay within 1 to 10 nM; the “Ki(D2)/Ki(D3)” value was “++ (between 50 and 100)”. Besides, the Ki at human 5-HT6 receptor fell in the range of 10 to 50 nM.
Regarding `CCCN1CC[C@@H](c2ccc(NS(=O)(=O)c3ccc(Cl)s3)cc2)C1` [Example 62, 5-Chloro-thiophene-2-sulfonic acid [4-((S)-1-propyl-pyrrolidin-3-yl)-phenyl]-amide], in assay [1], the Ki fell in the range of 1 to 10 nM and the “Ki(D2)/Ki(D3)” value is recorded as “++++ (>150)”. The molecule also had a Ki on human 5-HT6 receptor of 1 to 10 nM.
Take `CCCN1CC[C@@H](c2ccc(NS(=O)(=O)c3cccc(C#N)c3)cc2)C1` [Example 64, 3-Cyano-N-[4-((S)-1-propyl-pyrrolidin-3-yl)-phenyl]-benzenesulfonamide hydrochloride]: at human 5-HT6 receptor, the inhibition constant (Ki) fell in the range of 50 to 150 nM.
On human 5-HT6 receptor, `O=S(=O)(Nc1cccc([C@@H]2CCN(Cc3ccccc3)C2)c1)c1cccc(C(F)(F)F)c1` [Example 65, N-[3-((S)-1-Benzyl-pyrrolidin-3-yl)-phenyl]-3-trifluoromethyl-benzene sulfonamide] gave an inhibition constant (Ki) of 10 to 50 nM.
For the molecule `CCCN1CC[C@@H](c2ccc(NS(=O)(=O)c3ccc(-c4ccccn4)s3)cc2)C1.Cl` [Example 66, 5-Pyridin-2-yl-thiophene-2-sulfonic acid [4-((S)-1-propyl-pyrrolidin-3-yl)-phenyl]-amide hydrochloride], the results for the Ki (in assay [1]; on human 5-HT6 receptor) were under 1 nM and 10 to 50 nM, respectively. Moreover, in assay [1], the “Ki(D2)/Ki(D3)” value is “+++ (between 100 and 150)”.
`O=S(=O)(Nc1cccc([C@@H]2CCNC2)c1)c1cccc(C(F)(F)F)c1` [Example 67, N-[3-((S)-pyrrolidin-3-yl)-phenyl]-3-trifluoromethyl-benzene sulfonamide] came in with an inhibition constant Ki on human 5-HT6 receptor of 1 to 10 nM.
With `Cl.O=S(=O)(Nc1ccc([C@@H]2CCNC2)cc1)c1ccc(-c2ccccn2)s1` [Example 69, 5-Pyridin-2-yl-thiophene-2-sulfonic acid ((S)-4-pyrrolidin-3-yl-phenyl)-amide hydrochloride], in assay [1], the Ki is 10 to 50 nM; the “Ki(D2)/Ki(D3)” value is “+++ (between 100 and 150)”. The molecule also returned an inhibitory constant (Ki) at human 5-HT6 receptor of 10 to 50 nM.
Take `CCCN1CC[C@@H](c2ccc(NS(=O)(=O)c3cccc(Br)c3)cc2)C1` [Example 70, 3-Bromo-N-[4-((S)-1-propyl-pyrrolidin-3-yl)-phenyl]-benzenesulfonamide]: in assay [1], the Ki fell in the range of 1 to 10 nM; the “Ki(D2)/Ki(D3)” value was “++ (between 50 and 100)”. Besides, at human 5-HT6 receptor, the Ki was in the range of 1 to 10 nM.
For the molecule `CCCN1CC[C@@H](c2ccc(NS(=O)(=O)c3cccc(N4CCCC4)c3)cc2)C1` [Example 71, N-[4-((S)-1-Propyl-pyrrolidin-3-yl)-phenyl]-3-pyrrolidin-1-yl-benzenesulfonamide], the Ki was in the range of 10 to 50 nM in assay [1] and 1 to 10 nM on human 5-HT6 receptor. Further, the “Ki(D2)/Ki(D3)” value in assay [1] was “+ (between 10 and 50)”.
As to `CCCN1CC[C@@H](c2ccc(NS(=O)(=O)c3ccc(-n4cccn4)s3)cc2)C1.Cl` [Example 73, 5-Pyrazol-1-yl-thiophene-2-sulfonic acid [4-((S)-1-propyl-pyrrolidin-3-yl)-phenyl]-amide hydrochloride], in assay [1], the Ki was in the range of 1 to 10 nM; the “Ki(D2)/Ki(D3)” value is “++ (between 50 and 100)”. At human 5-HT6 receptor, the Ki was 10 to 50 nM.
In the case of `CCCN1CC[C@@H](c2ccc(NS(=O)(=O)c3cc(Cl)c(Cl)s3)cc2)C1.Cl` [Example 74, 4,5-Dichloro-thiophene-2-sulfonic acid [4-((S)-1-propyl-pyrrolidin-3-yl)-phenyl]-amide hydrochloride], the inhibition constant Ki in assay [1] lay in the range of 10 to 50 nM; at human 5-HT6 receptor it was 1 to 10 nM. Also, the “Ki(D2)/Ki(D3)” value in assay [1] was “++ (between 50 and 100)”.
As to `CCCN1CC[C@@H](c2ccc(NS(=O)(=O)c3ccc(-c4csnn4)s3)cc2)C1.Cl` [Example 75, 5-[1,2,3]Thiadiazol-4-yl-thiophene-2-sulfonic acid [4-((S)-1-propyl-pyrrolidin-3-yl)-phenyl]-amide hydrochloride], the Ki (in assay [1]; at human 5-HT6 receptor) was 10 to 50 nM in each case. Also, the “Ki(D2)/Ki(D3)” value in assay [1] was “+ (between 10 and 50)”.
Consider `CCCN1CC[C@@H](c2ccc(NS(=O)(=O)c3ccc(C(F)(F)F)s3)cc2)C1.Cl` [Example 76, 5-Trifluoromethyl-thiophene-2-sulfonic acid [4-((S)-1-propyl-pyrrolidin-3-yl)-phenyl]-amide hydrochloride], for which the inhibition constant (Ki) (in assay [1]; on human 5-HT6 receptor) was 1 to 10 nM each time. Moreover, the “Ki(D2)/Ki(D3)” value in assay [1] was “+++ (between 100 and 150)”.
On to `CN1CC[C@@H](c2cccc(NS(=O)(=O)c3cccc(C(F)(F)F)c3)c2)C1` [Example 77, N-[3-((S)-1-Methyl-pyrrolidin-3-yl)-phenyl]-3-trifluoromethyl-benzenesulfonamide hydrochloride], for which the Ki on human 5-HT6 receptor lay in the range of 1 to 10 nM.
`CCCN1CC[C@@H](c2ccc(NS(=O)(=O)c3ccc(-c4csc(C)n4)s3)cc2)C1` [Example 78, 5-(2-Methyl-thiazol-4-yl)-thiophene-2-sulfonic acid [4-((S)-1-propyl-pyrrolidin-3-yl)-phenyl]-amide]: the Ki was under 1 nM in assay [1] and 1 to 10 nM on human 5-HT6 receptor.
As to `CCCN1CC[C@@H](c2ccc(NS(=O)(=O)c3cc(C(F)(F)F)ccc3OC)cc2)C1` [Example 91, 2-Methoxy-N-[4-((S)-1-propyl-pyrrolidin-3-yl)-phenyl]-5-trifluoromethyl-benzenesulfonamide], the Ki at human 5-HT6 receptor fell in the range of 10 to 50 nM.
The same measure, in the same setting: to `CCCN1C[C@H](c2ccc(NS(=O)(=O)c3cccc(C(F)(F)F)c3)cc2)C[C@H]1C` [Example 94, N-[4-((3S,5R)-5-Methyl-1-propyl-pyrrolidin-3-yl)-phenyl]-3-trifluoromethyl-benzenesulfonamide hydrochloride] belongs 10 to 50 nM; to `O=S(=O)(Nc1ccc([C@@H]2CCNC2)cc1)c1cccc(C(F)(F)F)c1` [Example 101, N—((S)-4-Pyrrolidin-3-yl-phenyl)-3-trifluoromethyl-benzenesulfonamide], 10 to 50 nM; to `CCCN1CC[C@@H](c2ccc(NS(=O)(=O)c3cc(C(F)(F)F)ccc3F)cc2)C1` [Example 104, 2-Fluoro-N-[4-((S)-1-propyl-pyrrolidin-3-yl)-phenyl]-5-trifluoromethyl-benzenesulfonamide], 10 to 50 nM.
